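Results reflect a 48-hour exposure of cells in 96-well plates to compound at five concentrations. Abbreviation: GI50, concentration required for 50% inhibition of growth.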 The source made the active and inactive calls. Cut-off read from the data, not from the text of the source: active = GI50 up to about 1.1 µM and inactive = higher.
Tests used:
Experiment in all cases: NCI tumour cell line growth inhibition, 48 h
K562 = system: K562
SK-MEL-2 = system: SK-MEL-2
HOP-92 = system: HOP-92
HOP-62 = system: HOP-62
SK-MEL-28 = system: SK-MEL-28
OVCAR-3 = system: OVCAR-3
SNB-19 = system: SNB-19
HCT-116 = system: HCT-116
NCI-H23 = system: NCI-H23
OVCAR-5 = system: OVCAR-5
SW-620 = system: SW-620
SN12C = system: SN12C
MOLT-4 = system: MOLT-4
UACC-62 = system: UACC-62
A549 = system: A549
TK-10 = system: TK-10
HCC 2998 = system: HCC 2998
SF-539 = system: SF-539
MCF7 = system: MCF7

Measured: GI50

COC(=O)c1cc(O)nc(O)n1
inactive: K562 > 100 µM | SK-MEL-2 > 100 µM | HOP-92 > 100 µM | HOP-62 > 100 µM | SK-MEL-28 > 100 µM | OVCAR-3 > 100 µM | SNB-19 > 100 µM | HCT-116 > 100 µM | NCI-H23 > 100 µM | OVCAR-5 > 100 µM | SW-620 > 100 µM | SN12C > 100 µM | MOLT-4 > 100 µM | UACC-62 > 100 µM | A549 > 100 µM | TK-10 > 100 µM

CN(C)CCOC1(Cc2ccc(Cl)cc2Cl)CCC(C(C)(C)C)CC1 (stereo not given)
inactive: K562 1.6 µM | SK-MEL-2 1.72 µM | HCC 2998 1.63 µM | HOP-62 1.74 µM | SK-MEL-28 1.65 µM | OVCAR-3 1.71 µM | SF-539 4.36 µM | SNB-19 1.75 µM | HCT-116 1.6 µM | NCI-H23 2.5 µM | OVCAR-5 2.78 µM | MCF7 2.01 µM | SW-620 1.51 µM | SN12C 1.65 µM | MOLT-4 1.86 µM | UACC-62 2.12 µM | A549 3.18 µM | TK-10 2.62 µM

N=c1oc2ccccc2cc1C(=O)Nc1ccccn1
inactive: K562 > 100 µM | SK-MEL-2 29.4 µM | HOP-92 > 100 µM | HCC 2998 > 100 µM | HOP-62 63 µM | SK-MEL-28 > 100 µM | OVCAR-3 > 100 µM | SF-539 65.6 µM | SNB-19 > 100 µM | HCT-116 51.9 µM | NCI-H23 > 100 µM | OVCAR-5 > 100 µM | SW-620 > 100 µM | SN12C > 100 µM | MOLT-4 66.4 µM | UACC-62 58.6 µM | A549 > 100 µM

Clc1sc(Cl)c2c1[C@H](Br)C[C@@H]2Cl
inactive: K562 38.5 µM | SK-MEL-2 59.8 µM | HCC 2998 37.8 µM | HOP-62 83.9 µM | SK-MEL-28 29 µM | OVCAR-3 23.8 µM | SF-539 15.8 µM | SNB-19 57.7 µM | HCT-116 27.9 µM | NCI-H23 17.8 µM | OVCAR-5 > 100 µM | MCF7 12.5 µM | SW-620 21.6 µM | SN12C 29.5 µM | MOLT-4 19.1 µM | UACC-62 20.9 µM | A549 32.9 µM | TK-10 33.7 µM

CC1(C)CNC(=O)C2(CCCO2)CNC(C)(C)CNC(=O)C2(CCCO2)CN1 (stereo not given)
inactive: K562 > 10 µM | HOP-92 > 10 µM | HCC 2998 > 10 µM | HOP-62 > 10 µM | SK-MEL-28 > 10 µM | OVCAR-3 > 10 µM | SF-539 > 10 µM | SNB-19 > 10 µM | HCT-116 > 10 µM | NCI-H23 > 10 µM | OVCAR-5 > 10 µM | MCF7 > 10 µM | SW-620 > 10 µM | SN12C > 10 µM | MOLT-4 > 10 µM | UACC-62 > 10 µM | A549 > 10 µM | TK-10 > 10 µM

CC(=O)OCc1cn(S(=O)(=O)c2ccc(C)cc2)cn1
inactive: K562 > 100 µM | HOP-92 > 100 µM | HCC 2998 > 100 µM | HOP-62 > 100 µM | SK-MEL-28 > 100 µM | OVCAR-3 24.2 µM | SF-539 16.4 µM | SNB-19 > 100 µM | HCT-116 24 µM | NCI-H23 > 100 µM | MCF7 25.2 µM | SW-620 43 µM | SN12C > 100 µM | MOLT-4 46.5 µM | UACC-62 75.2 µM | A549 84.5 µM | TK-10 > 100 µM

CCOC(CI)O[C@@H]1C=C[C@H](OC(C)=O)C1 (stereo not given in full)
inactive: K562 > 100 µM | SK-MEL-2 > 100 µM | HCC 2998 > 100 µM | HOP-62 84.7 µM | SK-MEL-28 > 100 µM | OVCAR-3 33.7 µM | SF-539 > 100 µM | SNB-19 > 100 µM | HCT-116 > 100 µM | NCI-H23 > 100 µM | OVCAR-5 > 100 µM | MCF7 > 100 µM | SW-620 > 100 µM | SN12C > 100 µM | MOLT-4 > 100 µM | UACC-62 > 100 µM | A549 > 100 µM

CN(C)CCNc1ncnc2[nH]c(-c3ccc4ccccc4c3)nc12
inactive: K562 > 100 µM | SK-MEL-2 > 100 µM | HCC 2998 > 100 µM | HOP-62 > 100 µM | SK-MEL-28 > 100 µM | OVCAR-3 > 100 µM | SNB-19 > 100 µM | HCT-116 > 100 µM | NCI-H23 > 100 µM | OVCAR-5 > 100 µM | MCF7 > 100 µM | SW-620 > 100 µM | SN12C > 100 µM | MOLT-4 > 100 µM | UACC-62 > 100 µM | A549 > 100 µM | TK-10 > 100 µM

O=C(O)CCC1C(=O)C2CCN1CC2 (stereo not given)
inactive: K562 > 100 µM | SK-MEL-2 > 100 µM | HCC 2998 > 100 µM | HOP-62 > 100 µM | SK-MEL-28 > 100 µM | OVCAR-3 > 100 µM | SF-539 > 100 µM | SNB-19 > 100 µM | HCT-116 > 100 µM | NCI-H23 > 100 µM | OVCAR-5 > 100 µM | MCF7 > 100 µM | SW-620 > 100 µM | SN12C > 100 µM | MOLT-4 > 100 µM | UACC-62 > 100 µM | A549 > 100 µM | TK-10 > 100 µM

CC1=C(C)C(=O)C2=C(OCCO2)C1=O
inactive: HOP-92 2.75 µM | HCC 2998 19.5 µM | HOP-62 17.7 µM | SK-MEL-28 16.1 µM | OVCAR-3 10.3 µM | SF-539 19.9 µM | SNB-19 17.3 µM | HCT-116 3.73 µM | NCI-H23 18.2 µM | OVCAR-5 19.7 µM | MCF7 24.5 µM | SW-620 20.6 µM | SN12C 20 µM | MOLT-4 2.55 µM | A549 21.5 µM | TK-10 16.9 µM

CCc1nn(CN2CCOCC2)c(=S)n1/N=C/c1ccc(-c2ccc(Cl)cc2)o1
inactive: K562 > 100 µM | SK-MEL-2 > 100 µM | HOP-92 > 100 µM | HOP-62 > 100 µM | SK-MEL-28 > 100 µM | OVCAR-3 > 100 µM | SF-539 > 100 µM | HCT-116 > 100 µM | NCI-H23 > 100 µM | OVCAR-5 > 100 µM | MCF7 > 100 µM | SW-620 > 100 µM | MOLT-4 > 100 µM | A549 > 100 µM | TK-10 > 100 µM

CC(=O)OCC1OC(c2nnc(C)o2)=CC(OC(C)=O)C1OC(C)=O (stereo not given)
inactive: K562 > 100 µM | HOP-62 > 100 µM | SK-MEL-28 > 100 µM | OVCAR-3 > 100 µM | SF-539 > 100 µM | SNB-19 > 100 µM | HCT-116 > 100 µM | NCI-H23 > 100 µM | OVCAR-5 > 100 µM | MCF7 > 100 µM | SW-620 > 100 µM | SN12C > 100 µM | MOLT-4 > 100 µM | A549 > 100 µM | TK-10 > 100 µM

O=C1CC2c3ccccc3CCC2c2ccccc21 (stereo not given)
inactive: K562 6.32 µM | SK-MEL-2 16.8 µM | HCC 2998 21.5 µM | HOP-62 25.9 µM | SK-MEL-28 36.1 µM | OVCAR-3 13.3 µM | SF-539 16.3 µM | SNB-19 15.1 µM | HCT-116 11.1 µM | NCI-H23 20.2 µM | OVCAR-5 24.4 µM | MCF7 24 µM | SW-620 26.5 µM | MOLT-4 32.3 µM | UACC-62 20 µM | A549 27.5 µM | TK-10 35.2 µM

c1ccc(-c2cc(-c3cc(-c4ccccc4)n(-c4ccccc4)n3)nn2-c2ccccc2)cc1
inactive: K562 > 100 µM | SK-MEL-2 > 100 µM | HCC 2998 > 100 µM | HOP-62 35.7 µM | OVCAR-3 > 100 µM | SF-539 > 100 µM | SNB-19 > 100 µM | HCT-116 > 100 µM | NCI-H23 > 100 µM | OVCAR-5 > 100 µM | MCF7 > 100 µM | SN12C > 100 µM | MOLT-4 > 100 µM | UACC-62 > 100 µM | A549 > 100 µM | TK-10 > 100 µM

CC1=NC(=Cc2ccc(Cl)cc2)C(=O)N1n1c(-c2ccccc2)nc2ccccc2c1=O
inactive: K562 34.8 µM | HCC 2998 38.8 µM | HOP-62 47.2 µM | SK-MEL-28 51.4 µM | SF-539 35.1 µM | SNB-19 48.6 µM | HCT-116 34.8 µM | NCI-H23 26.3 µM | MCF7 28.2 µM | SW-620 57.1 µM | SN12C 43.4 µM | MOLT-4 34.5 µM | UACC-62 33.2 µM | A549 39.8 µM | TK-10 51.6 µM

N#C/C(C(=S)NCc1ccccc1)=C(/N)N1CCCC1
inactive: K562 > 100 µM | SK-MEL-2 > 100 µM | HOP-92 44.9 µM | HCC 2998 > 100 µM | HOP-62 > 100 µM | SK-MEL-28 > 100 µM | OVCAR-3 > 100 µM | SF-539 > 100 µM | SNB-19 > 100 µM | HCT-116 > 100 µM | NCI-H23 > 100 µM | OVCAR-5 > 100 µM | SW-620 > 100 µM | SN12C > 100 µM | MOLT-4 > 100 µM | UACC-62 > 100 µM | A549 > 100 µM | TK-10 > 100 µM

COC(=O)N[C@H](C(=O)O)C(C)O[Si](C)(C)C(C)(C)C (stereo not given in full)
inactive: K562 > 100 µM | HCC 2998 > 100 µM | HOP-62 > 100 µM | SK-MEL-28 > 100 µM | OVCAR-3 7.08 µM | SF-539 > 100 µM | SNB-19 > 100 µM | HCT-116 > 100 µM | NCI-H23 > 100 µM | OVCAR-5 > 100 µM | MCF7 > 100 µM | SW-620 > 100 µM | SN12C > 100 µM | MOLT-4 > 100 µM | UACC-62 > 100 µM | A549 > 100 µM | TK-10 > 100 µM

From ChEMBL document CHEMBL1201862, “PubChem BioAssay data set” (2004)
